Measurements as given in EP1541559A1, “5-SUBSTITUTED ISOQUINOLINE DERIVATIVE” (Asahi Kasei Pharma Corporation, priority 2002, dated 2004).
Counter-ions that a name gives are not always drawn. Like-named read-outs stand apart in the source and are kept apart here.

How the values were obtained:
Neutrophils = assay: Neutrophil migration inhibitory action, Boyden Chamber, FMLP (Test Example 5); format: cell-based, human; settings: Homo sapiens, Neutrophil, 0.5 h, FMLP (1 µM), migration at 37°C for 30 minutes; read-out: Neutrophil migration inhibition IC50
Outline: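 Neutrophils from healthy donors' peripheral blood (8 x 10^6/ml) were preincubated 5 min at room temperature with compound. Migrated cells were stained and absorbance read at 595 nm; inhibition (%) was calculated against compound-free wells.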

[1] = tested on: ovalbumin-immunized guinea pigs; assay: Respiratory tract constriction suppression action, ovalbumin-induced (Test Example 3); format: in vivo, Hartley guinea pigs; settings: result in words; test medicament given into hind leg vein after induction with 0.3 mg/kg ovalbumin, measured for 15 minutes
Method: Four-week old Hartley guinea pigs (male) were immunized by intraperitoneal administration of ovalbumin (Sigma, Grade V) in amounts of 1 mg for each animal on the day on which the experiment was started, 3 mg for each animal after 2 days, and 10 mg for each animal after 4 days. Twelve to fourteen days after the final immunization, the ovalbumin-immunized guinea pigs were anesthetized by intraperitoneal administration of about 40 mg/kg of pentobarbital (Somnopentyl), and the tracheas were taken out. Subsequently, a cannula (SP-110, Natsume) was inserted into each trachea, and one end of the cannula was connected to an artificial respirator (Model-b83, Harvard). The aeration conditions were set at 6 ml per kilogram and 60 times per 1 minute. Further, a cannula for medicament administration (JMS wing needle 23G 3/4) was inserted into a hind leg vein. Myoblock (Organon Technica) was administered in an amount of 0.5 mg/kg from the cannula inserted into the hind leg vein to stop the spontaneous breathing, and after 2 or 3 minutes, 0.3 mg/kg of ovalbumin was administered to induce constriction of respiratory tract. The increase of airway resistance value 2 minutes after the induction (measurement apparatuses: pressure transducer TR-603T, respiratory amplifier AR-601G, and recorder RTA-3100, Nihon Kohden Corp.) was confirmed to be above 80 cm H2O or higher, and then, a solution of a test medicament was administered from the cannula inserted into the hind leg vein, and the airway resistance value was continuously measured for 15 minutes after the administration to determine the effect.

Japanese white rabbit = assay: Intraocular pressure reducing action (Test Example 4); format: in vivo; settings: Oryctolagus cuniculus, topical; 50 µl of test compound (1% aqueous solution) dropped to the left eye, after 2 hours; read-out: Intraocular pressure reducing action (reduction ratio) (%)
Method: A Japanese white rabbit having a body weight of about 2 kg was placed in a positioner and naturalized for one week before the experiment. An ophthalmologic local […] (Benoxil) was administered to the left eye, and then intraocular pressure was measured by using a tonometer (Classic 30, Solan). The initial value of the intraocular pressure was measured, then 50 μl of a test compound (1% aqueous solution) was dropped to the left eye, and after 2 hours, the intraocular pressure was measured. The intraocular pressure reducing action of the test compounds is shown in Table 7 mentioned below as ratios (%) of reduction of intraocular pressure based on the initial value of the intraocular pressure.

[2] = tested on: myosin regulatory light chain; assay: Action on amount of phosphorylated myosin regulatory light chain in the cells (Test Example 1); format: cell-based, human; settings: neutrophils of healthy volunteers, reaction with test compound at 25°C for 5 minutes, read-out: Inhibition of myosin regulatory light chain phosphorylation (IC50: µM)
Outline: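 Neutrophil suspension (5 x 10^6/ml, HBSS) reacted 5 min at 25 °C with test compound at various concentrations. TCA-stopped, urea-extracted and run on SDS-PAGE, then immunoblotted with antibody specific for phosphorylated myosin regulatory light chain, detected by HRP/ECL and quantified by densitometry. Result given as % inhibition of phosphorylation.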

[3] = tested on: myosin light chain phosphorylation enzyme (MLCK); assay: Action on myosin light chain phosphorylation enzyme (MLCK) activity, ELISA (second Test Example 7); format: biochemical, chicken; settings: result in words
Method: A myosin light chain phosphorylation enzyme (MLCK) was purified from chicken gizzard smooth muscle by a conventional method (Yoshida, M., et al., J. Biochem., 99, 1027-1036 (1986)). The myosin regulatory light chain as a substrate was purified from the chicken gizzard smooth muscle by a conventional method (Grand, R. J., et al., Biochem. J., 211, 267-272 (1983)). The MLCK activity was measured by ELISA using pLC1 described in Test Example 1 (Sakurada, K., et al., J. Biochem., 115, 18-21 (1994)). […] In a volume of 100 µ1 each of 20% aqueous phosphoric acid solution was added to each well to terminate the enzymatic reaction. Each well was washed with 25 mM Tris/HCl buffer (TTBS) containing 0.1% Tween 20, and then 100 µl each of pLC1 described in Test Example 1 was added to each well and incubated at room temperature for 90 minutes. Each well was washed with TTBS, and then 100 µl of the HRP-labeled rabbit anti-mouse IgG antibodies (Bio-Rad) were added to each well and incubated at room temperature for 90 minutes. […] 50 µl of 4 N sulfuric acid was added to each well to terminate the reaction, and then absorbance was measured by using an immunoplate reader (Bio-Rad).

## c1cc(NC2CCCNC2)c2ccncc2c1 (racemic) [Example 29, 3-N-(5-Isoquinolyl)aminopiperidine hydrochloride]
Neutrophils
  IC50: ≤ 40 µM
[1]
  constriction of respiratory tract (airway resistance value): significantly improved the constriction of respiratory tract
Japanese white rabbit
  inhibition in vivo at 1 %: 18.8%
[2]; Homo sapiens, Neutrophil, 5 min
  IC50: ≤ 40 µM
[2]; hydrochloride
  IC50: ≤ 20 µM
[3]
  inhibition of MLCK: did not inhibit MLCK
